Measurements published in publication PMC9684079, “Pharmacological targeting of glutamatergic neurons within the brainstem for weight reduction” (Nature Metabolism, 2022).

Assays:
[1] = biological target: T1, Growth Hormone Secretogogue (GHS, Ghrelin) (Homo sapiens, UniProt Q92847); experiment: biochemical; set-up: Cerep/Eurofins selectivity panel, receptors, channels and transporters, per cent inhibition at 10 uM; details: read-out: % Inhibition
T1 construct: gene GHSR

Hcrtr2 = biological target: T2, Hcrtr2 (Homo sapiens, UniProt O43614); experiment: radioligand displacement of [3H]EMPA (weak; functional IC50 […]); assay type: binding
T2 construct: membranes from CHO-K1 cells stably expressing HCRTR2

[2] = biological target: Protein Serine/Threonine Kinase, CDC2/CCNB1 (CDK1/cyclinB) (Homo sapiens, UniProt P06493); experiment: biochemical; set-up: Cerep/Eurofins selectivity panel, enzymes, per cent inhibition at 10 uM; details: read-out: % Inhibition
Glucocorticoid = biological target: T3, Glucocorticoid (Homo sapiens, UniProt P04150); experiment: biochemical; set-up: Cerep/Eurofins selectivity panel, receptors, channels and transporters, per cent inhibition at 10 uM; details: read-out: % Inhibition
T3 construct: gene NR3C1

[3] = biological target: T4, Cholinesterase, Acetyl, ACES (Homo sapiens, UniProt P22303); experiment: biochemical; set-up: Cerep/Eurofins selectivity panel, enzymes, per cent inhibition at 10 uM
T4 construct: gene ACHE

[4] = biological target: T5, Nitric Oxide Synthase, inducible (iNOS) (Mus musculus, UniProt P29477); experiment: biochemical; set-up: Cerep/Eurofins selectivity panel, enzymes, per cent inhibition at 10 uM; details: read-out: % Inhibition
T5 construct: gene Nos2

Androgen (Testosterone) = biological target: T6, Androgen (Testosterone) (Homo sapiens, UniProt P10275); experiment: biochemical; set-up: Cerep/Eurofins selectivity panel, receptors, channels and transporters, per cent inhibition at 10 uM; details: read-out: % Inhibition
T6 construct: gene AR

[5] = biological target: T7, Hcrtr1 (orexin 1 receptor) (Homo sapiens, UniProt O43613); experiment: radioligand displacement of [3H]SB674042; also FLIPR Ca2+ antagonism in Chem-1 cells (IC50 […]); assay type: binding
T7 construct: membranes from CHO-K1 cells stably expressing HCRTR1

Insulin = biological target: T8, Insulin (Rattus norvegicus, UniProt P15127); experiment: biochemical; set-up: Cerep/Eurofins selectivity panel, receptors, channels and transporters, per cent inhibition at 10 uM; details: read-out: % Inhibition
T8 construct: gene Insr

Cannabinoid CB1 = biological target: T9, Cannabinoid CB1 (Homo sapiens, UniProt P21554); experiment: biochemical; set-up: Cerep/Eurofins selectivity panel, receptors, channels and transporters, per cent inhibition at 10 uM; details: read-out: % Inhibition
T9 construct: gene CNR1

Angiotensin AT1 = biological target: T10, Angiotensin AT1 (Homo sapiens, UniProt P30556); experiment: biochemical; set-up: Cerep/Eurofins selectivity panel, receptors, channels and transporters, per cent inhibition at 10 uM; details: read-out: % Inhibition
T10 construct: gene AGTR1

[6] = biological target: Protein Tyrosine Kinase, LYN B (Homo sapiens, UniProt P07948); experiment: biochemical; set-up: Cerep/Eurofins selectivity panel, enzymes, per cent inhibition at 10 uM; details: read-out: % Inhibition
[7] = biological target: T11, Protein Serine/Threonine Kinase, ATK1 (PRKBA) (Homo sapiens, UniProt P31749); experiment: biochemical; set-up: Cerep/Eurofins selectivity panel, enzymes, per cent inhibition at 10 uM; details: read-out: % Inhibition
T11 construct: gene AKT1

[8] = biological target: Protein Tyrosine Kinase, FES (Homo sapiens, UniProt P07332); experiment: biochemical; set-up: Cerep/Eurofins selectivity panel, enzymes, per cent inhibition at 10 uM; details: read-out: % Inhibition
[9] = biological target: Protein Serine/Threonine Kinase, MAP2K1 (MEK1) (Homo sapiens, UniProt Q02750); experiment: biochemical; set-up: Cerep/Eurofins selectivity panel, enzymes, per cent inhibition at 10 uM; details: read-out: % Inhibition
HMG-CoA Reductase = biological target: T12, HMG-CoA Reductase (Homo sapiens, UniProt P04035); experiment: biochemical; set-up: Cerep/Eurofins selectivity panel, enzymes, per cent inhibition at 10 uM; details: read-out: % Inhibition
T12 construct: gene HMGCR

[10] = biological target: Protein Serine/Threonine Kinase, MAPK1 (ERK2) (Homo sapiens, UniProt P28482); experiment: biochemical; set-up: Cerep/Eurofins selectivity panel, enzymes, per cent inhibition at 10 uM; details: read-out: % Inhibition
[11] = biological target: T13, Peptidase, Matrix metalloprotease-13 (MMP-13) (Homo sapiens, UniProt P45452); experiment: biochemical; set-up: Cerep/Eurofins selectivity panel, enzymes, per cent inhibition at 10 uM; details: read-out: % Inhibition
T13 construct: gene MMP13

[12] = biological target: T14, Protein Tyrosine Kinase, Insulin receptor (Homo sapiens, UniProt P06213); experiment: biochemical; set-up: Cerep/Eurofins selectivity panel, enzymes, per cent inhibition at 10 uM; details: read-out: % Inhibition
T14 construct: gene INSR

[13] = biological target: Protein Tyrosine Kinase, ERBB2 (HER2) (Homo sapiens, UniProt P04626); experiment: biochemical; set-up: Cerep/Eurofins selectivity panel, enzymes, per cent inhibition at 10 uM; details: read-out: % Inhibition
Cyclooxygenase COX-1 = biological target: T15, Cyclooxygenase COX-1 (Homo sapiens, UniProt P23219); experiment: biochemical; set-up: Cerep/Eurofins selectivity panel, enzymes, per cent inhibition at 10 uM; details: read-out: % Inhibition
T15 construct: gene PTGS1

[14] = biological target: T16, Peptidase, Matrix metalloprotease-1 (MMP-1) (Homo sapiens, UniProt P03956); experiment: biochemical; set-up: Cerep/Eurofins selectivity panel, enzymes, per cent inhibition at 10 uM; details: read-out: % Inhibition
T16 construct: gene MMP1

Phospholipase PLA2-I = biological target: T17, Phospholipase PLA2-I (Sus scrofa, UniProt P00592); experiment: biochemical; set-up: Cerep/Eurofins selectivity panel, enzymes, per cent inhibition at 10 uM; details: read-out: % Inhibition
T17 construct: gene PLA2G1B

Anaphylatoxin C5a = biological target: T18, Anaphylatoxin C5a (Homo sapiens, UniProt P21730); experiment: biochemical; set-up: Cerep/Eurofins selectivity panel, receptors, channels and transporters, per cent inhibition at 10 uM; details: read-out: % Inhibition
T18 construct: gene C5AR1

[15] = biological target: T19, Protein Serine/Threonine Kinase, IKK-1 (Homo sapiens, UniProt O15111); experiment: biochemical; set-up: Cerep/Eurofins selectivity panel, enzymes, per cent inhibition at 10 uM; details: read-out: % Inhibition
T19 construct: gene CHUK
T19 sequence (O15111 whole entry): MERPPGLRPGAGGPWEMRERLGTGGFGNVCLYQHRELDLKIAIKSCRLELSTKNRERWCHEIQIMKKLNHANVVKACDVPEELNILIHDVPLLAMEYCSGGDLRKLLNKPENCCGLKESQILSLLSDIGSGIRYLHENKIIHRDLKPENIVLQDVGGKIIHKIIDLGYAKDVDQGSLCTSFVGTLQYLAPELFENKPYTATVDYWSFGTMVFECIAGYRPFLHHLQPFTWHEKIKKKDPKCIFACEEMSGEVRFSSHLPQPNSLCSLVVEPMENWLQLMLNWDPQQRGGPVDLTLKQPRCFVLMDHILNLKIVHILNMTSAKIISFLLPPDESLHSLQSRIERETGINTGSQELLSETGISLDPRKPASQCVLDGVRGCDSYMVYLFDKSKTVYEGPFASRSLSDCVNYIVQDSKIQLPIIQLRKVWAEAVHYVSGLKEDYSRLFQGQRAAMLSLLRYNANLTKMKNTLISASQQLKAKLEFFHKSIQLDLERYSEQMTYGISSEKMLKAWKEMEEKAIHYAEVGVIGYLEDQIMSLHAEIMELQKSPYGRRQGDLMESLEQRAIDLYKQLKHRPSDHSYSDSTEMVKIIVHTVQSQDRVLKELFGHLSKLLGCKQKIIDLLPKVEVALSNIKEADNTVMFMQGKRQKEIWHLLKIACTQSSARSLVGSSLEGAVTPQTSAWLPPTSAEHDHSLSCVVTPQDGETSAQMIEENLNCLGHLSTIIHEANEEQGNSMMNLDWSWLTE

T16 sequence (P03956 whole entry): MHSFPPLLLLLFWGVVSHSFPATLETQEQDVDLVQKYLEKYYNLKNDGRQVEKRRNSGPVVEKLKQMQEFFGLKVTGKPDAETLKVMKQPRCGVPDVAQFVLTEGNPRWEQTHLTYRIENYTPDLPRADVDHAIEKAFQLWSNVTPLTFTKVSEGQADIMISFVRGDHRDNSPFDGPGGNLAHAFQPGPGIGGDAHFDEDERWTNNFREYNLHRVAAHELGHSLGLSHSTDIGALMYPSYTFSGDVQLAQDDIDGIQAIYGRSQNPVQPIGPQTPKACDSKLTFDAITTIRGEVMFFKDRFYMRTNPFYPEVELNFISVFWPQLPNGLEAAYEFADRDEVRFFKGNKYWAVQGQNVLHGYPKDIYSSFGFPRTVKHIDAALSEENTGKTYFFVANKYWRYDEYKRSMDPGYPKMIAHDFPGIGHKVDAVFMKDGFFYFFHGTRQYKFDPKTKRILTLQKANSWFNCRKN
T6 sequence (P10275 whole entry): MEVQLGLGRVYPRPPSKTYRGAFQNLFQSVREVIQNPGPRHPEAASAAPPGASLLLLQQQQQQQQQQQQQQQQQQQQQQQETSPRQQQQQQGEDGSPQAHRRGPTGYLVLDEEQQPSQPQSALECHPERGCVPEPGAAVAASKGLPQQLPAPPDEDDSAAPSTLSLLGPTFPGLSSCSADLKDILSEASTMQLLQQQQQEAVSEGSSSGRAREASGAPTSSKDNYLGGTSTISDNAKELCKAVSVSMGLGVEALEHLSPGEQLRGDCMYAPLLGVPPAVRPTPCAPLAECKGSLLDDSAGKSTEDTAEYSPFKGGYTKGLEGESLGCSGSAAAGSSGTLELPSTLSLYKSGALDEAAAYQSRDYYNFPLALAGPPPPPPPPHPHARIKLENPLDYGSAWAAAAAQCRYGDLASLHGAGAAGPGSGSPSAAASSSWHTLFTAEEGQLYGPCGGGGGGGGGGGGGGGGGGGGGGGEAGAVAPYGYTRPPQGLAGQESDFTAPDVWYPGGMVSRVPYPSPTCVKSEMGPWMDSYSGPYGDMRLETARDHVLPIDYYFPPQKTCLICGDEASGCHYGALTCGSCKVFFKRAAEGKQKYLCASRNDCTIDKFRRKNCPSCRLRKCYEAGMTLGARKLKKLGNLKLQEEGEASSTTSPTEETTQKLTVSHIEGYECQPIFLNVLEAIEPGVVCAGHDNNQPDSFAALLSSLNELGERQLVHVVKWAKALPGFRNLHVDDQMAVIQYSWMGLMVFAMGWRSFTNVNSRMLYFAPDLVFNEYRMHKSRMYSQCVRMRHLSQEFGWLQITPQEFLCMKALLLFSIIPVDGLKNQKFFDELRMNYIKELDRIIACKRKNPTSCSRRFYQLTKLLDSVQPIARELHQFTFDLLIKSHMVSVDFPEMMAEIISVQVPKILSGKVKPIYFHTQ
Chain of Protein Serine/Threonine Kinase, MAPK1 (ERK2) (P28482 whole entry): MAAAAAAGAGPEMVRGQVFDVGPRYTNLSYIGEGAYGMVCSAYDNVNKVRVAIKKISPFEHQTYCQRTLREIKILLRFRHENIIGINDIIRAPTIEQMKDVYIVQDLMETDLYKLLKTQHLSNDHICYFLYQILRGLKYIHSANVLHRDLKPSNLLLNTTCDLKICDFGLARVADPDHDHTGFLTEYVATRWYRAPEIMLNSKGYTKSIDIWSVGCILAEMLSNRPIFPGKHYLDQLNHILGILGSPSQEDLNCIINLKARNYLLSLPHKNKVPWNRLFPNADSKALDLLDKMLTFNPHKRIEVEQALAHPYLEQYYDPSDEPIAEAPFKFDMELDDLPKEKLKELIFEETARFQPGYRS
T11 sequence (P31749 whole entry): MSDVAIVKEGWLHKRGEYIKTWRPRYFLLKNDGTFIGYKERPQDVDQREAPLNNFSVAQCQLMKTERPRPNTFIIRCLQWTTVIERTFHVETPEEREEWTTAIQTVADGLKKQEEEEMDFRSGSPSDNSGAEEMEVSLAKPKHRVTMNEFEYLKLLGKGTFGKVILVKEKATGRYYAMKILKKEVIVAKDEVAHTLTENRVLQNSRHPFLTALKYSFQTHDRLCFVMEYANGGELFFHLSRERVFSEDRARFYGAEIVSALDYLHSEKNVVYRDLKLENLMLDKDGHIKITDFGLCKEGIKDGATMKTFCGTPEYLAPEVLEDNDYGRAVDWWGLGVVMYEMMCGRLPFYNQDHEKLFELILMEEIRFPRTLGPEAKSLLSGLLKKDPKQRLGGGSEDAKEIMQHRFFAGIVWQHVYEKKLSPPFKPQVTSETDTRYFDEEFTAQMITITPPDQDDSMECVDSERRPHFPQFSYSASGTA
Chain of Protein Tyrosine Kinase, FES (P07332 whole entry): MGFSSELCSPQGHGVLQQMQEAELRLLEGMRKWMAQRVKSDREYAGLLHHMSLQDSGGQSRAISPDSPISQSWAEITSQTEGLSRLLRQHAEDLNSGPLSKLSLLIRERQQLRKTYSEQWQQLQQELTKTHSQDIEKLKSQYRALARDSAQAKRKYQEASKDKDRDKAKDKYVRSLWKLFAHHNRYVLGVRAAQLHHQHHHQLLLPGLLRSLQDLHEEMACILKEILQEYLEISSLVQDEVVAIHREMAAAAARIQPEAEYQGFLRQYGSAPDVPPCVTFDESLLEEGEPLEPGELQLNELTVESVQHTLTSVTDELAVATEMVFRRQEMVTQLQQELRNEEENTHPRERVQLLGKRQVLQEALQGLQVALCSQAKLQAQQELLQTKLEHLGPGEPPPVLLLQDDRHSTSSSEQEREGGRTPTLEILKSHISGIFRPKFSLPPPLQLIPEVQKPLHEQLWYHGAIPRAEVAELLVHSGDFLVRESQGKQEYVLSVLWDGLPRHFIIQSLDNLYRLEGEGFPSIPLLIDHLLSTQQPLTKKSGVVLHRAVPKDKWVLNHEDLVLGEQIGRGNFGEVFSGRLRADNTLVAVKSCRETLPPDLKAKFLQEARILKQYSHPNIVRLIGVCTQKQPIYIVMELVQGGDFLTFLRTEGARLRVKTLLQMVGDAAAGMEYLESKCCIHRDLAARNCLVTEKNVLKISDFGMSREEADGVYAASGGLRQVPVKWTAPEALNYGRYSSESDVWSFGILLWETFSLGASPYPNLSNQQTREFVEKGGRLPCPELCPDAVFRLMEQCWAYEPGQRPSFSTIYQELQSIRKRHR
T18 sequence (P21730 whole entry): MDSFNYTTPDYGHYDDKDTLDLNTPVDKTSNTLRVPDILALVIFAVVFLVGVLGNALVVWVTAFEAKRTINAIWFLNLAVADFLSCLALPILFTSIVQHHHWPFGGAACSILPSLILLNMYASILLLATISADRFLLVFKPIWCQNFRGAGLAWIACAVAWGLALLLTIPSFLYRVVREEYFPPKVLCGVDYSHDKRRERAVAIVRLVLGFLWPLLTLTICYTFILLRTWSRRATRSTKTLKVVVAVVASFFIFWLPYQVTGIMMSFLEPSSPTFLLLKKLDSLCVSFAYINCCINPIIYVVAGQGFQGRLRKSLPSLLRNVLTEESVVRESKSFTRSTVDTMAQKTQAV
T10 sequence (P30556 whole entry): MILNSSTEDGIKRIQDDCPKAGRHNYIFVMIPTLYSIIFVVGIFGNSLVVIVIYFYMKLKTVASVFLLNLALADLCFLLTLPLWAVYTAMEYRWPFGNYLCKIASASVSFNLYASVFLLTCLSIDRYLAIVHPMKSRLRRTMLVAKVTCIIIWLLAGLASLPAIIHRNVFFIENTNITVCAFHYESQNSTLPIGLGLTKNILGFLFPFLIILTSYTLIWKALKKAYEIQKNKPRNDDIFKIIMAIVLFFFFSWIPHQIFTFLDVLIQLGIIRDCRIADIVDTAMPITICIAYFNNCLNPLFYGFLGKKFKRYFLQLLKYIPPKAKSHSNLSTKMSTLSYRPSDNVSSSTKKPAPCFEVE
T7 sequence (O43613 whole entry): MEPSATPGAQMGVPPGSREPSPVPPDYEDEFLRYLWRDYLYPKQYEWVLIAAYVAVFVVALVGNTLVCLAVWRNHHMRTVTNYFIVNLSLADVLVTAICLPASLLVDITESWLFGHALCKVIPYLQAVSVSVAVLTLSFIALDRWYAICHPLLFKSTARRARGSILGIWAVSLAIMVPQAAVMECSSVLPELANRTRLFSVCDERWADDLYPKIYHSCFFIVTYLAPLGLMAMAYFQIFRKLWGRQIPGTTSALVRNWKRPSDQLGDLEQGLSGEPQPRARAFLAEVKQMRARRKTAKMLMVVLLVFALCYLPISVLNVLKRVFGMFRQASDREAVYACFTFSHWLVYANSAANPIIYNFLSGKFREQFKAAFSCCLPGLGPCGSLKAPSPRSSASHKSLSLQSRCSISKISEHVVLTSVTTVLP

`C[C@]1(Nc2cnc(C(F)(F)F)cn2)CCC[C@@H]1NC(=O)c1ncccc1-n1nccn1` [CVN45502] gave an inhibition at 10 µM [1] of -5%, a Ki (Hcrtr2) of 4.66 pKi and an inhibition at 10 µM [2] of 14%. It also gave an inhibition at 10 µM (Glucocorticoid) of 13%, an inhibition at 10 µM [3] of -8% and an inhibition at 10 µM [4] of 5%. It also gave an inhibition at 10 µM (Androgen (Testosterone)) of -5%, a Ki [5] of 13.8 nM and an inhibition at 10 µM (Insulin) of 2%. The inhibition at 10 µM (Cannabinoid CB1) was 8%, the inhibition at 10 µM (Angiotensin AT1) was -1% and the inhibition at 10 µM [6] was 6%. It also gave an inhibition at 10 µM [7] of -7%, an inhibition at 10 µM [8] of -13% and an inhibition at 10 µM [9] of -4%. It also gave an inhibition at 10 µM (HMG-CoA Reductase) of -4%, an inhibition at 10 µM [10] of 5% and an inhibition at 10 µM [11] of -4%. The inhibition at 10 µM [12] was -14%, the inhibition at 10 µM [13] was 0% and the inhibition at 10 µM (Cyclooxygenase COX-1) was 5%. For the same compound, the inhibition at 10 µM [14] was 18%, the inhibition at 10 µM (Phospholipase PLA2-I) was 10% and the inhibition at 10 µM (Anaphylatoxin C5a) was 6%. The inhibition at 10 µM [15] was -14%.
